Reference: US10662159B2, “ABHD6 and dual ABHD6/MGL inhibitors and their uses” (MAKScientific, LLC, priority 2017, dated 2020)

Experiments:
Type in all cases: biochemical
hFAAH = hFAAH (Homo sapiens (Human), UniProt O00519); assay: Fluorescent assay for hFAAH; settings: MBP ΔTM hFAAH, procedure as for rFAAH; read-out: hFAAH Inhibition IC50
Protocol: (§1) Certain compounds were tested for their ABHD6 and dual ABHD6/MGL inhibitory activity, which is expressed as % of inhibition or IC50 values in Table 1. The percentage of inhibition describes the percentage by which the inhibitor reduces the velocity/rate of 2-AG hydrolysis by ABHD6, and MGL or AEA hydrolysis by FAAH. The IC50 is the concentration of the inhibitor, which results in 50% inhibition of the velocity/rate of 2-AG hydrolysis by ABHD6 or MGL. The IC50 is the concentration of the inhibitor, which results in 50% inhibition of the velocity/rate of AEA hydrolysis by FAAH. The lower the IC50 values, the higher its inhibitory activity. A detailed description of the methods used to test inhibitory activity of compounds is given below.
Example 80. Preparation of Human FAAH in Fusion with N-Terminal Maltose Binding Tag (MBP ΔTM hFAAH)
Human FAAH without putative transmembrane domain following maltose binding protein was expressed in E. coli cells using pMALcE4 vector Alapafuja et al J. Med. Chem. (2012) 55: 10074-89.
(§2) The fluorescence reading at the 3 hour time point (linear enzyme kinetics) was used to calculate percent inhibition based on control assays without inhibitor present. All FAAH assays were performed in triplicate for each inhibitor concentration, and IC50 values determined using Prizm software (GraphPad Software, Inc.).
Example 82. Fluorescent Assay Protocol for hFAAH
Procedure was followed as described for rFAAH.

hABHD6 = hABHD6 (Homo sapiens (Human), UniProt Q9BV23); assay: Fluorescent assay for hABHD6 (AHMMCE substrate hydrolysis); settings: membrane fraction containing full-length hABHD6, 20 μM AHMMCE; read-out: ABHD6 Inhibition IC50
Chain of hABHD6 (Q9BV23 whole entry): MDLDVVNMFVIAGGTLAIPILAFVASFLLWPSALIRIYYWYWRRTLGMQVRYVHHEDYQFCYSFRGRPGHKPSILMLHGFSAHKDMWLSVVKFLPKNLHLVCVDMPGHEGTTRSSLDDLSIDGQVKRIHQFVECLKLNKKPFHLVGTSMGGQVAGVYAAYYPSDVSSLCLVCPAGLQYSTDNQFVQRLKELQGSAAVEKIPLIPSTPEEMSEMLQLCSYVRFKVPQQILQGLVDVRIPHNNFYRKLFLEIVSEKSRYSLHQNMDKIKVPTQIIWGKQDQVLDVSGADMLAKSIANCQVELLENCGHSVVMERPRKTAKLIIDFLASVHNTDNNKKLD
Protocol: (§3) Certain compounds were tested for their ABHD6 and dual ABHD6/MGL inhibitory activity, which is expressed as % of inhibition or IC50 values in Table 1. The percentage of inhibition describes the percentage by which the inhibitor reduces the velocity/rate of 2-AG hydrolysis by ABHD6, and MGL or AEA hydrolysis by FAAH. […] The lower the IC50 values, the higher its inhibitory activity. A detailed description of the methods used to test inhibitory activity of compounds is given below.
Fluorescent Assays Protocol for hABHD6
Initial Fluorescent Inhibition Assay (3-Point)—
In each well of a 96-well plate 8 μL of membrane fraction containing full-length hABHD6 (1 μg total protein) was mixed with 168 μL of assay buffer (50 mM Tris-HCl, pH 7.6), and 20 μL of diluted compound (diluted in a dilution buffer consisting of 50% DMSO/50% assay buffer v/v). Each plate was incubated at RT for 15 minutes before adding 4 μL of 1 mM AHMMCE substrate (final concentration of 20 μM AHMMCE and final volume of 200 μL). The reaction was allowed to proceed for 1 hr at RT before the fluorescence was read at λex 360 nm and λem 460 nm and the inhibition calculated. Each experiment can test 8 compounds at three concentrations (usually 10 μM, 1 μM, and 100 nM).
IC50 Determination Assay (8-Point)—
A more detailed assay with an extended range tests compounds over 8 concentrations depending on the pre-determined approximate IC50 value from the initial screen. […] The assay was conducted in 96 well plate with each well containing the same reaction mixture detailed above in the 3-point screen. The relative fluorescence is quantified into coumarin produced by using a standard curve of HMMC in triplicate on each plate. Results are normalized to the negative control wells and the IC50 is determined using a non-linear regression curve fit in Prism, version 5 (GraphPad, San Diego, Calif.).

hMGL = hMGL (Homo sapiens (Human), UniProt Q99685); assay: Fluorescent assay for hMGL (AHMMCE substrate hydrolysis); settings: E. coli lysate containing hMGL, read-out: hMGL Inhibition IC50
Chain of hMGL (Q99685 whole entry): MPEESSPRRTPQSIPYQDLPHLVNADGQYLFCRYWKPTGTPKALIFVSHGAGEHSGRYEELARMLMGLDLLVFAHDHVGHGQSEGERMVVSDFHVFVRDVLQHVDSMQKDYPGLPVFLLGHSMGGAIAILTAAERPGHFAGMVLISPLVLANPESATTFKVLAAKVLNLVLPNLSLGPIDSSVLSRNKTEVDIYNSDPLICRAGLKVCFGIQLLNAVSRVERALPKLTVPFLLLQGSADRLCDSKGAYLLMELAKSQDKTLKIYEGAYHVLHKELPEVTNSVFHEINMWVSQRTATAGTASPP
Protocol: as §3
Preparation of Human MAGL (hMAGL)
Fluorescent Assay Protocol for hMGL
This medium throughput assay involved a 96-well plate format in which hMGL activity was monitored by the hydrolysis of the substrate […] (AHMMCE) to form the fluorescent product, coumarin. […] Upon the addition of AHMMCE, the reaction was incubated at 25° C. for 120 min; fluorescence readings were taken every 15 min at 360 nm/460 nm (λexcitation/λemission) using a Synergy HT Plate Reader (Bio-Tek, Winooski, Vt.). […] External standards were used to convert relative fluorescence units to the amount of 4-methylcoumarin formed. All MGL assays were performed in triplicate for each inhibitor concentration, and IC50 values were calculated using Prizm software (GraphPad Software, Inc., San Diego, Calif.).

Rat ΔTM FAAH = Rat ΔTM FAAH (Rattus norvegicus (Rat), UniProt P97612); assay: Fluorescent assay for rat ΔTM FAAH (AAMCA substrate); settings: ΔTM rFAAH, AAMCA 20 μM; read-out: rFAAH Inhibition IC50
Chain of Rat ΔTM FAAH (P97612 30-579): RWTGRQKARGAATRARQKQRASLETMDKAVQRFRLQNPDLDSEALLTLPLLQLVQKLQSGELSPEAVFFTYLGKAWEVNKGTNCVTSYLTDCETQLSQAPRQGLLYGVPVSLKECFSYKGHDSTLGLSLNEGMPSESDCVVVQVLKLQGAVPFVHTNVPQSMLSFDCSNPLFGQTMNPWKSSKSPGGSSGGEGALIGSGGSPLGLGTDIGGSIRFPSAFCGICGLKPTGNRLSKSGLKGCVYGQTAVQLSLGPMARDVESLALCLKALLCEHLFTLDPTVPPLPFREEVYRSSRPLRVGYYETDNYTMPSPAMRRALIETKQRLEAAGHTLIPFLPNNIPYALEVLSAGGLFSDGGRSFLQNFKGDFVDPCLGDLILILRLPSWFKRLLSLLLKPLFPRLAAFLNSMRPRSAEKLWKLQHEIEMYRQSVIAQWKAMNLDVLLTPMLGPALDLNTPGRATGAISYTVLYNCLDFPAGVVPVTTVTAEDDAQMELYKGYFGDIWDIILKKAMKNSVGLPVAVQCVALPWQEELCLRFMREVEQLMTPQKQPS
Protocol: as §1
Example 79. Preparation of Transmembrane Domain-Deleted Rat FAAH (ΔTM rFAAH)
Rat ΔTM FAAH was expressed in E. coli cells and purified using the procedure disclosed by Patricelli et al. Biochemistry (1998) 37: 15177-15187.
Example 81. Fluorescent Assay Protocol for Rat ΔTM FAAH
as §2

Chain of hFAAH (O00519 30-579): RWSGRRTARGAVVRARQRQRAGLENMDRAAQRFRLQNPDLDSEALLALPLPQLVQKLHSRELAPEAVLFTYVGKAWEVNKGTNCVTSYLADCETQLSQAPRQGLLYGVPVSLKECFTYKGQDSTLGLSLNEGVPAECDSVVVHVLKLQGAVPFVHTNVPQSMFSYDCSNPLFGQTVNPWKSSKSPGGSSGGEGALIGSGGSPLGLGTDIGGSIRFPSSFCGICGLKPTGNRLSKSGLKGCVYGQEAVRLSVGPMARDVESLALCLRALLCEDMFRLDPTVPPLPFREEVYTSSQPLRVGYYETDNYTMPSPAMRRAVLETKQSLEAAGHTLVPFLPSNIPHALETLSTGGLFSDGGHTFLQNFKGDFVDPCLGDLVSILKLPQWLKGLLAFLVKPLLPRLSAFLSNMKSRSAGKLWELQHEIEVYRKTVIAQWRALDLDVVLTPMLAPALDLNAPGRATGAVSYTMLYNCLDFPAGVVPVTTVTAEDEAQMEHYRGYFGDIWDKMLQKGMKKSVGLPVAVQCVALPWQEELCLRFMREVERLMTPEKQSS

| Compound | IC50 (hFAAH) [nM] | IC50 (hABHD6) [nM] | IC50 (hMGL) [nM] | IC50 (Rat ΔTM FAAH) [nM] |
| --- | --- | --- | --- | --- |
| CC1c2ccccc2CCN1C(=O)OC(C(F)(F)F)C(F)(F)F (racemic) [Example 6, 1,1,1,3,3,3-Hexafluoropropan-2-yl 1-methyl-3,4-dihydroisoquinoline-2(1H)-carboxylate] | > 1000 | > 1000 | > 1000 | > 1000 |
| CCC1c2ccccc2CCN1C(=O)OC(C(F)(F)F)C(F)(F)F (racemic) [Example 7, 1,1,1,3,3,3-Hexafluoropropan-2-yl 1-ethyl-3,4-dihydroisoquinoline-2(1H)-carboxylate] | > 1000 | > 1000 | > 1000 | > 1000 |
| O=C(OC(C(F)(F)F)C(F)(F)F)N1CCc2ccccc2C1 [Example 1, 1,1,1,3,3,3-Hexafluoropropan-2-yl 3,4-dihydroisoquinoline-2(1H)-carboxylate] | > 1000 | 10 to 100 | > 1000 | > 1000 |
| O=C(OC(C(F)(F)F)C(F)(F)F)N1CCc2ccccc2[C@H]1c1ccccc1 [Example 2, 1,1,1,3,3,3-Hexafluoropropan-2-yl(R)-1-phenyl-3,4-dihydroisoquinoline-2(1H)-carboxylate] | > 1000 | > 1000 | > 1000 | > 1000 |
| O=C(OC(C(F)(F)F)C(F)(F)F)N1CCc2ccccc2[C@@H]1c1ccccc1 [Example 3, 1,1,1,3,3,3-Hexafluoropropan-2-yl (S)-1-phenyl-3,4-dihydroisoquinoline-2(1H)-carboxylate] | > 1000 | > 1000 | > 1000 | > 1000 |
| O=C(OC(C(F)(F)F)C(F)(F)F)N1CCc2cccc(Br)c2C1 [Example 4, 1,1,1,3,3,3-Hexafluoropropan-2-yl 8-bromo-3,4-dihydroisoquinoline-2(1H)-carboxylate] | > 1000 | 10 to 100 | > 1000 | > 1000 |
| O=C(OC(C(F)(F)F)C(F)(F)F)N1Cc2ccc(Br)cc2C1 [Example 8, 1,1,1,3,3,3-Hexafluoropropan-2-yl 5-bromoisoindoline-2-carboxylate] | > 1000 | 10 to 100 | > 1000 | > 1000 |
| COc1ccc2c(c1)CN(C(=O)OC(C(F)(F)F)C(F)(F)F)C2 [Example 9, 1,1,1,3,3,3-Hexafluoropropan-2-yl 5-methoxyisoindoline-2-carboxylate] | > 1000 | 10 to 100 | > 1000 | > 1000 |
| O=C(OC(C(F)(F)F)C(F)(F)F)N1CCc2cc(Br)ccc21 [Example 10, 1,1,1,3,3,3-Hexafluoropropan-2-yl 5-bromoindoline-1-carboxylate] | > 1000 | 100 to 1000 | > 1000 | > 1000 |
| O=C(OC(C(F)(F)F)C(F)(F)F)N1Cc2cc(Br)cnc2C1 [Example 11, 1,1,1,3,3,3-Hexafluoropropan-2-yl 3-bromo-5,7-dihydro-6H-pyrrolo[3,4-b]pyridine-6-carboxylate] | > 1000 | 100 to 1000 | > 1000 | > 1000 |
| O=C(OC(C(F)(F)F)C(F)(F)F)N1Cc2cccc(Br)c2C1 [Example 12, 1,1,1,3,3,3-Hexafluoropropan-2-yl 4-bromoisoindoline-2-carboxylate] | > 1000 | 100 to 1000 | > 1000 | > 1000 |

Now from value to compound:

| IC50 (hFAAH) [nM] | IC50 (hABHD6) [nM] | IC50 (hMGL) [nM] | IC50 (Rat ΔTM FAAH) [nM] | Compound |
| --- | --- | --- | --- | --- |
| > 1000 | > 1000 | > 1000 | > 1000 | CC1Cc2ccccc2CN1C(=O)OC(C(F)(F)F)C(F)(F)F (stereo not shown) [Example 13, 1,1,1,3,3,3-Hexafluoropropan-2-yl 3-methyl-3,4-dihydroisoquinoline-2(1H)-carboxylate] |
| > 1000 | 100 to 1000 | > 1000 | > 1000 | O=C(OC(C(F)(F)F)C(F)(F)F)N1Cc2ccc(Cl)nc2C1 [Example 14, 1,1,1,3,3,3-Hexafluoropropan-2-yl-2-chloro-5,7-dihydro-6H-pyrrolo[3,4-b]pyridine-6-carboxylate] |
| > 1000 | > 1000 | > 1000 | > 1000 | CC1c2ccc(Br)cc2CN1C(=O)OC(C(F)(F)F)C(F)(F)F (stereo not shown) [Example 15, 1,1,1,3,3,3-Hexafluoropropan-2-yl 5-bromo-1-methylisoindoline-2-carboxylate] |
| > 1000 | 10 to 100 | > 1000 | > 1000 | O=C(OC(C(F)(F)F)C(F)(F)F)N1CCc2c(Br)cccc2C1 [Example 16, 1,1,1,3,3,3-Hexafluoropropan-2-yl 5-bromo-3,4-dihydroisoquinoline-2(1H)-carboxylate] |
| > 1000 | 10 to 100 | > 1000 | > 1000 | O=C(OC(C(F)(F)F)C(F)(F)F)N1CCc2cc(Br)ccc2C1 [Example 17, 1,1,1,3,3,3-Hexafluoropropan-2-yl 6-bromo-3,4-dihydroisoquinoline-2(1H)-carboxylate] |
| > 1000 | 100 to 1000 | > 1000 | > 1000 | O=C(OC(C(F)(F)F)C(F)(F)F)N1CCc2ccc(Br)cc2C1 [Example 18, 1,1,1,3,3,3-Hexafluoropropan-2-yl 7-bromo-3,4-dihydroisoquinoline-2(1H)-carboxylate] |
| > 1000 | 10 to 100 | > 1000 | > 1000 | COc1cccc2c1CN(C(=O)OC(C(F)(F)F)C(F)(F)F)C2 [Example 19, 1,1,1,3,3,3-Hexafluoropropan-2-yl 4-methoxyisoindoline-2-carboxylate] |
| > 1000 | 100 to 1000 | > 1000 | > 1000 | CC1CN(C(=O)OC(C(F)(F)F)C(F)(F)F)Cc2ccccc21 (stereo not shown) [Example 20, 1,1,1,3,3,3-Hexafluoropropan-2-yl 4-methyl-3,4-dihydroisoquinoline-2(1H)-carboxylate] |
| > 1000 | 10 to 100 | > 1000 | > 1000 | COc1cc2c(cc1OC)CN(C(=O)OC(C(F)(F)F)C(F)(F)F)C2 [Example 21, 1,1,1,3,3,3-Hexafluoropropan-2-yl 5,6-dimethoxyisoindoline-2-carboxylate] |
| > 1000 | > 1000 | > 1000 | > 1000 | O=C(OC(C(F)(F)F)C(F)(F)F)N1CCCc2ccccc2C1 [Example 24, 1,1,1,3,3,3-Hexafluoropropan-2-yl 1,3,4,5-tetrahydro-2H-benzo[c]azepine-2-carboxylate] |
| > 1000 | 10 to 100 | > 1000 | > 1000 | COc1ccc(-c2ccc3c(c2)CN(C(=O)OC(C(F)(F)F)C(F)(F)F)C3)cc1F [Example 26, 1,1,1,3,3,3-Hexafluoropropan-2-yl 5-(3-fluoro-4-methoxyphenyl)isoindoline-2-carboxylate] |
